Data: patent US5159002A, “Method for purifying dermostatin A and dermostatin B” (Xechem Inc., priority 1990, dated 1992)
“Also recorded” adds a separate entry of the source.

Assays:
[1] = test system: H9 cells; experiment: Survival/viability of HIV-infected H9 cells (trypan blue exclusion), % control; conditions: for viability at 0.01 µg/mL / viability at 0.1 µg/mL / viability at 1 µg/mL / viability at 10 µg/mL / viability at 5 µg/mL: Homo sapiens, H9, 96 h, read-out: Cell Survival (% Control); for viability of cells in the presence of HIV (in words): in vitro
[2] = test system: HIV virus; conditions: for inhibition of viral replication (in words): about 1 μg/ml; for activity against HIV / inhibition of viral replication (in words): in vitro
[3] = Solubility; format: physicochemical; conditions: Tables I-III
[4] = test system: target cells; experiment: Toxicity to the cells; format: cell-based

Molecule	Cell Survival (% Control) ([1]; Table IV, conc. not printed (line between 10 and 0.1), added with HIV, 4 days)	viability at 0.01 µg/mL [1]	viability at 0.1 µg/mL [1]	viability at 1 µg/mL [1]	viability at 10 µg/mL [1]	inhibition of viral replication (in words) [2]	activity against HIV / inhibition of viral replication (in words) [2]	Solubility [3]	viability at 5 µg/mL [1]	viability of cells in the presence of HIV (in words) [1]	effect against HIV infection at noncytotoxic doses (in words) [2]	toxicity to the cells (in words) [4]
C[C@@H]1[C@H](O)[C@@H](C)/C=C/C=C/CC/C=C/C=C/C=C/C=C/[C@H](O[C@@H]2O[C@H](C)[C@@H](O)[C@H](N)[C@@H]2O)C[C@@H]2O[C@](O)(C[C@@H](O)C[C@@H](O)[C@H](O)CC[C@@H](O)C[C@@H](O)CC(=O)O[C@H]1C)C[C@H](O)[C@H]2C(=O)O [Amphotericin A, reference compound]	75 % Control											
C[C@@H]1[C@H](O)[C@@H](C)/C=C/C=C/C=C/C=C/C=C/C=C/C=C/[C@H](O[C@@H]2O[C@H](C)[C@@H](O)[C@H](N)[C@@H]2O)C[C@@H]2O[C@](O)(C[C@@H](O)C[C@@H](O)[C@H](O)CC[C@@H](O)C[C@@H](O)CC(=O)O[C@H]1C)C[C@H](O)[C@H]2C(=O)O [Amphotericin B, reference compound]		13%	11%	33%	73%							
CC(C)C1OC(=O)/C=C/C=C/C=C/C=C/C=C/C=C/CC(O)C(C)C(O)CC(O)CC(O)CC(O)CC(O)CC(O)CC(O)CC(O)/C=C/C1C (stereo not drawn) [Dermostatin A]		0%	18%	92%		high levels of inhibition to viral replication have been achieved	inhibit the ability of the HIV virus to replicate within the lymphocyte after penetration by the virus	Soluble in MeOH, DMSO, DMF; also recorded: Insoluble in H2 O, pet ether, hexane	99%	improve the viability of lymphocyte cells in the presence of HIV; also recorded: protective effect		
CCC(C)C1OC(=O)/C=C/C=C/C=C/C=C/C=C/C=C/CC(O)C(C)C(O)CC(O)CC(O)CC(O)CC(O)CC(O)CC(O)CC(O)/C=C/C1C (stereo not drawn) [Dermostatin B]		0%	0%	87%		high levels of inhibition to viral replication have been achieved	inhibit the ability of the HIV virus to replicate within the lymphocyte after penetration by the virus	Soluble in MeOH, DMSO, DMF; also recorded: Insoluble in H2 O, pet ether, hexane	97%	improve the viability of lymphocyte cells in the presence of HIV; also recorded: protective effect		
CCCCC[C@@H](O)[C@H]1C(=O)O[C@H](C)[C@@H](O)/C=C/C=C/C=C/C=C/C=C(\C)[C@@H](O)C[C@H](O)C[C@H](O)C[C@H](O)C[C@H](O)C[C@H](O)C[C@@H]1O [Filipin, reference compound]			48%	51%	49%		not active against HIV					
Candicidin											no advantage whatsoever is seen	toxic to the cells; also recorded: its own cytotoxic effects takes its toll on the target cells
